pEC50: −log10 of the molar value. Read-outs that look alike come from different tables or passages of the source.

Experiment [1] has as its target T1, prion protein (recombinant mouse PrP, recPrP) (Mus musculus, UniProt P04925).
T1 construct: gene Prnp
Briefly: biochemical.

The target of experiment [2] is T1, prion protein (recombinant mouse PrP, recPrP). Description: biochemical. This is another data set of the same source.
The target is the same in experiment [3]. The format is biochemical.

T1 sequence (P04925 23-231 limits assumed): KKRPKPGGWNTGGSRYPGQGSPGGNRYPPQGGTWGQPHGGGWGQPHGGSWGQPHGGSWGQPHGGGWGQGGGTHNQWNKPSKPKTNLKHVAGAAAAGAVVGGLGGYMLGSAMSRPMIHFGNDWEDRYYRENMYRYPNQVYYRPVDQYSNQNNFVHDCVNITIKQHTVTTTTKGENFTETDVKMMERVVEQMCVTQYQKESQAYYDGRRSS

`O=C(NNC(=S)Nc1ccc(Cl)cc1)c1cc2cccc(O)c2cc1O` [7x]: the negative logarithm of the EC50 (pEC50) in experiment [1] was 5.34.

Regarding `CCOc1cc(C(=O)NNC(=S)Nc2ccc(Cl)cc2)c(O)c2ccccc12` [7y], the pEC50 in experiment [2] was 5.30.

`Cc1cc(Nc2ccc(NC(=O)c3ccc(Nc4ccnc5ccccc45)cc3)cc2)nc(N)n1` [SGI-1027]: the “PrP aggregate formation assay (ThT fluorescence) with purified recPrP, single co” value in experiment [3] was “The anti-PrP aggregation activity of 7x and 7y was further compared to that of SGI-1027 (a positive control)”.

These data come from publication PMC10038035 (Journal of Enzyme Inhibition and Medicinal Chemistry, 2023).
